Drawing on PubChem BioAssay (NCI), this text covers TGI for seven compounds.

What all share (assay): NCI-60 cell line screen, 48 h
The test system of assay [1] is ACHN renal.
In assay [2] the test system is BT-549 breast.
For assay [3], the system named is CAKI-1 renal.
For assay [4], the system named is CCRF-CEM leukemia.
Assay [5] has as its system COLO 205 colon.
For assay [6], the system named is EKVX NSCLC.
Assay [7] concerns HCT-15 colon.
Assay [8] concerns HOP-92 NSCLC.
For assay [9], the system named is HS 578T breast.
Assay [10] deals with K-562 leukemia.
In assay [11] the test system is MDA-MB-435.
Assay [12] concerns NCI-H226 lung.
Assay [13] has as its system NCI-H460 lung.
The subject of assay [14] is NCI/ADR-RES ovarian.
Assay [15] concerns RXF 393 renal.
Assay [16] deals with SF-268 CNS.
Assay [17] has as its system SK-MEL-28 melanoma.
Assay [18] has as its system SNB-19 CNS.
Assay [19] has as its system SW-620 colon.
The test system of assay [20] is TK-10 renal.

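Cells were grown in 96-well plates and exposed to each compound for 48 hours at five concentrations; endpoints were interpolated linearly between bracketing concentrations, or set to the highest concentration if not reached. TGI: total growth inhibition.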 Where only a bound is given, the exact number is not on record here.

On to `CN(C)/C=N/c1cc(=O)n(C)c(=O)n1C`, for which the TGI in [1], in assay [2], in assay [3], in assay [4], in [5] and in assay [6] was greater than 100 µM each time. The TGI in assay [7], in [8], in assay [9], in assay [10], in [11] and in assay [12] was greater than 100 µM each time. Also, the TGI in [13], in [14], in assay [15], in assay [16], in assay [17] and in [18] was greater than 100 µM each time. Besides, the TGI in assay [19] and in [20] was greater than 100 µM throughout.

For the compound `C=C(Cl)[C@](Cl)(CBr)CC[C@@H](Br)C(C)(C)Cl`, the TGI is 2.31 µM in assay [1]; 11.7 µM in assay [2]; 0.751 µM in assay [3]; 46.6 µM in assay [4]; 3.41 µM in assay [5]; 8.04 µM in [6]. Further, the TGI was found to be 4.64 µM in [7]; 1.1 µM in [8]; 1.41 µM in assay [9]; 16.3 µM in [10]; 4.03 µM in assay [11]; 32.8 µM in assay [12]. Further, the TGI in assay [13] worked out at 2.46 µM; in assay [14] it was 4.32 µM; in assay [15], 0.576 µM; in assay [16], 2.18 µM; in assay [17], 3.27 µM; in assay [18], 3.27 µM. Moreover, the TGI was found to be 5.03 µM in assay [19] and 3.4 µM in assay [20].

Consider `Cc1ccc(NC(=O)CC(=O)N2N=C(N(c3ccccc3)c3ccccc3)CC2c2ccccc2)cc1` (stereo not given), for which the TGI in assay [1], in assay [2], in assay [3], in [4], in assay [5] and in assay [6] was greater than 100 µM each time. Besides, the TGI in [7] is greater than 100 µM; in assay [8], greater than 100 µM; in assay [9], 86 µM; in [10], greater than 100 µM; in assay [11] it was greater than 100 µM; in assay [12], greater than 100 µM. For the same compound, the TGI in assay [13], in [14], in assay [15], in assay [16], in assay [17] and in assay [18] was greater than 100 µM each time. In addition, the TGI in assay [19] and in assay [20] was greater than 100 µM each time.

With `O=C1NC(=Nc2ccccc2Cl)N/C1=C\c1c(Cl)cccc1Cl`, the TGI is greater than 100 µM in assay [1]; greater than 100 µM in assay [2]; greater than 100 µM in assay [3]; greater than 100 µM in [4]; 56.2 µM in assay [5]; 79.3 µM in [6]. For the same compound, the TGI is greater than 100 µM in assay [7]; 61.8 µM in assay [8]; 99 µM in assay [9]; greater than 100 µM in [10]; greater than 100 µM in [11]; greater than 100 µM in assay [12]. Besides, the TGI is 68.2 µM in assay [13]; 86 µM in assay [14]; 68 µM in assay [15]; greater than 100 µM in assay [16]; greater than 100 µM in [17]; greater than 100 µM in [18]. Also, the TGI was greater than 100 µM in assay [19] and 71.7 µM in assay [20].

For the compound `COC(=O)c1cc(C#N)[nH]c1-c1ccc(Br)s1`, the TGI is 31.9 µM in [1]; 22.8 µM in [2]; greater than 50.7 µM in assay [3]; 49.9 µM in assay [4]; 29.1 µM in [5]; 17.1 µM in [6]. Also, the TGI is 28 µM in assay [7]; 15.3 µM in [8]; 20.8 µM in assay [9]; greater than 48.4 µM in [10]; 34.5 µM in assay [11]; 26.3 µM in assay [12]. In addition, the TGI was determined as 37.8 µM in assay [13]; 30.6 µM in assay [14]; 19.4 µM in assay [15]; 24.2 µM in assay [16]; 24.4 µM in [17]; 22.3 µM in [18]. For the same compound, the values for the TGI in assay [19] and in assay [20] were 29.9 µM and 25.7 µM, respectively.

Consider `CN1CCOC1(C)c1ccccc1` (stereo not given), for which the TGI in [1], in assay [2], in [3], in assay [4], in assay [5] and in assay [6] was greater than 100 µM each time. The TGI in assay [7], in [8], in assay [9], in [10], in assay [11] and in assay [12] was greater than 100 µM in each case. In addition, the TGI in assay [13], in assay [14], in assay [15], in [16], in assay [17] and in assay [18] was greater than 100 µM throughout. Further, the TGI in assay [19] and in assay [20] was greater than 100 µM each time.

`O=c1c2c3c(sc2nc2n1sc1nc4sc5c(c4c(=O)n12)CCCC5)CCCC3`: the TGI in assay [1] was greater than 100 µM; in assay [2], 42.4 µM; in assay [3] it was 36.4 µM; in assay [4] it was 60.7 µM; in assay [5] it was 64.7 µM; in assay [6], 27.8 µM. Besides, the TGI was greater than 100 µM in assay [7]; greater than 91.8 µM in assay [8]; greater than 100 µM in assay [9]; greater than 63.3 µM in [10]; greater than 100 µM in [11]; 98.1 µM in assay [12]. For the same compound, the TGI is greater than 100 µM in assay [13]; greater than 71.4 µM in [14]; 38.5 µM in assay [15]; greater than 100 µM in [16]; greater than 100 µM in assay [17]; greater than 100 µM in assay [18]. In addition, the TGI was 63.5 µM in assay [19] and greater than 100 µM in assay [20].
